Values after ≈ are worked out from the molar mass of the structure shown. Counter-ions that a name gives are not always drawn.
What was measured:
U-2 OS cells [1] = experiment: Telomere length (flow cytometry, PNA probe), cell cycle distribution (PI), apoptosis and TRAP status in U-2 OS cells; format: cell-based, human
Method: (§1) The ALT cell lines were treated with therapeutic concentrations of AZT, to determine if slippage telomeric DNA synthesis could be inhibited by AZT-TP, and thereby induce telomere shortening. Telomere length in AZT treated and untreated cell lines was measured by flow cytometry with a telomere specific peptide nucleic acid (PNA) probe. To determine cell cycle distribution, cells were stained with propidium iodide (PI).
Rate of DNA synthesis was determined by incorporation of 5-bromodeoxyuridine (BdU). […] It is important to note that changes in cell cycle distribution, DNA synthesis and telomere length were rapid and could be detected after only 10 days of AZT treatment.
Telomere length in untreated and GCV treated cells was measured by flow cytometry with a telomere-specific PNA probe as described above.
To determine cell cycle distribution, cells were stained with propidium iodide (PI).
(§2) Both telomerase positive (Hela) telomerase negative (U-2 OS) cell lines were used. Appropriate assays were performed to detect and confirm telomerase/L1RT specific activity in these cells.
(§3) The U-2 OS (osteosarcoma) and HeLa (uterine cervix) cell lines used in this study were obtained from American Type Culture Collection (Rockville, Md.). Cells were cultured in D-MEM media supplemented with 10% fetal calf serum at 37° C. in a humidified atmosphere of 5% CO2. For treatment of the cells with ACV, the media was supplemented with 3 μM of acyclovir (acyclovir, TEVA Pharm. Ind. Ltd, Israel). For treatment of the cells with GCV, the media was supplemented with 1.5 μM of GCV (Cymevene, Hoffman-La Roche). For treatment of the cells with PCV, the media was supplemented with 1.5 μM of PCV (penciclovir, Merck & Co.).
(§4) Real time TRAP assay was performed as described (Wege et al., SYBR Green real-time telomeric repeat amplification protocol for the rapid quantification of telomerase activity. Nucleic Acids Res. 2003; 31(2):E3-3). For telomere length measurement by flow cytometry, cells were stained with telomere specific FITC conjugated (C3TA2)3 PNA (Applied Biosystems) probe and contrastained with 0.06 μg/ml PI as described by Rufer, N., Dragowska, W., Thornbury G., Roosnek, E., Lansdorp P. M. Telomere length dynamics in human lymphocyte subpopulations […]. Nat. Biotechnol. 16, 743-747 (1998)).
(a) In vitro arrays: U-2 OS cells were incubated with 0.2 μM of AZT for 22 days. Actively growing clones were analyzed by flow-FISH with telomere specific PNA probe, and in real time TRAP assay using HeLa cells as positive control. Isolated actively growing clones were different from parental cells in DNA content and telomere length.
(§5) Telomere length in SN 1 or SN 2 treated and untreated cell lines was measured by flow cytometry with a telomere—specific peptide nucleic acid PNA) probe. To determine cell cycle distribution, cells were stained with propidium iodide (PI).
(§6) The U-2 OS (osteosarcoma) and Hela (uterine cervix) cell lines used in this study were obtained from American Type Culture Collection (Rockville, Md.). Cells were cultured in D-MEM media supplemented with 10% fetal calf serum at 37° C. in a humidified atmosphere of 5% CO2. For treatment of the cells with SN 1 or SN 2, the media was supplemented with 1.5 μM of SN1 or SN2.
(§7) For telomere length measurement by flow cytometry, cells were stained with telomere specific FITC conjugated (C3TA2)3 PNA (Applied Biosystems) probe and contra-stained with 0.06 μg/ml PI as described by Rufer, N., Dragowska, W., Thornbury G., Roosnek, E., Lansdorp P. M. Telomere length dynamics in human lymphocyte subpopulations […]. Nat. Biotechnol. 16, 743-747 (1998)).

NuTu-19 cells = experiment: Telomere length (flow cytometry, PNA probe), cell cycle distribution (PI) and apoptosis in NuTu-19 cells; format: cell-based; conditions: GCV 1.5 μM or ACV 3.0 μM, 14 days (Example 2b)
Method: (§8) The origin of the cell lines are uterine cervix (HeLa) and epithelial ovarian (NuTu-19). Cells were cultured in D-MEM media supplemented with 10% fetal calf serum at 37° C. in a humidified atmosphere of 5% CO2. For treatment of the cells with GCV, the media was supplemented with 1.5 μM of GCV (Cymevene, Hoffman-La Roche). For treatment of the cells with ACV, the media was supplemented with 3 μM of Acyclovir (Acyclovir, TEVA Pharm. Ind. Id. Israel).
as §4

HeLa cells [2] = experiment: Telomere length (flow cytometry, PNA probe), cell cycle distribution (PI) and apoptosis in HeLa cells; format: cell-based, human
Method: as §1, §8, §4, §2, §3, §5, §6, §7

[3] = test system: Saos-2 osteosarcoma cells; conditions: therapeutic concentrations, 14 days; reported in WO 2005/069880; cited from earlier work
U-2 OS cells [4] = conditions: therapeutic concentrations, 14 days; reported in WO 2005/069880; cited from earlier work
[5] = MTT-microtiter plate tetrazolium cytotoxicity assay; format: cell-based; conditions: dog, MDCK (ATCC) cells; continuous exposure for 2 days; read-out: IC50 cytotoxic doses
Method: (a) Cytotoxcity Assay: The cytotoxic effects of compounds of the invention was determined using pharmacological models that are well known to the art, i.e., MTT-microtiter plate tetrazolium cytotoxicity Assay. Specifically, cytotoxicity assays were performed using the MIT assay procedure described in Mosmann, 1983, Rapid calorimetric assay for cellular growth and survival: application to proliferation and cytotoxicity assays, J Immunol Methods, 65:55-63. Briefly, the assay was performed by using 96-well microtiter plates plated at 10^4 MDCK (ATCC) cells/well, in […] of growth medium.
For determination of IC50 cells were exposed continuously for 2 days to varying concentrations of SN1, SN2, SN3, SN4 and valine ester of SN1. MIT assays were performed at the end of the 2nd day. […] All assays were performed at least 2 times in 3 replicate wells.

HeLa cells [6] = format: in vivo; conditions: Valcyte in drinking water (1 mg/ml) from day 0
Method: For in vivo assay, appropriate host, e.g., nude (nu/nu) mice of about 5-7 weeks old are obtained and maintained in pathogen-free conditions. Approximately, 1×10^6 HeLa cells (and/or U-2 OS cells) contained in 200 μl of serum-free media are delivered to all animals, briefly anaesthetize with Metofane, by subcutaneous (s.c.) injection in flank. Then the mice are divided into experimental group and control group. Appropriate concentrations of compounds of the formulas (I) to (VI), ACV, PCV and/or GCV are used for tumor growth progression or regression assays.
In one embodiment, impairment of s.c. tumor growth or time to progression rather than decrease in size of an established tumor (regression) is assessed. In this embodiment, starting from the day zero, mice in the experimental group receive GCV in drinking water ad libitum. Concentration of GCV in water can be 2 mg/ml. Fresh solution of GCV is supplied every 3 days. Mice in the control group receive only drinking water. Tumors are measured every 2-3 days. Mice are sacrificed when tumors exceed 1 cm^3. Tumor volume is calculated with formula 4/3πr^3, where r is the radius of the tumor.
Experimental group received valganciclovir in drinking water from day 0. Human cancer HeLa cell culture was purchased from ATCC. In all, 12 CD1/-nu and 12 NMRiI/-nu nude mice were purchased from Charles River Laboratories, Charles River Deutschland GmbH. These nude mice were injected s.c. with 3×10^5 Hela cells. Mice in the experimental groups (6 mice per strain) were exposed to Valcyte® (val-ganciclovir) in drinking water (1 mg/ml) from day 0.
(a) In vivo assays using Valganciclovir and zidovudine (AZT) combination: Human cancer HeLa cell culture was purchased from ATCC. A total of 24 CD1/-nu nude mice were purchased from Charles River laboratories, Charles River Deutschland GmbH. These mice were injected s.c. with 1×10^5 HeLa cells. The tumor volumes were determined by measurement of maximal and minimal diameters of the tumor. The calculations were conducted using the formula V=4/3 πRmax×Rmin^2, where Rmax−½ of maximal diameter of the tumor, and Rmin−½ of minimal diameter of the tumor. nude mice were injected s.c. with 1×10^5 Hela cells.
Of the 12 treated mice, after 20 days of double cocktail treatment, six mice were administered with a triple cocktail (Valcyte®+Retrovir®+ddI at the dose of 1 mg/ml each in drinking water for a further period 21 days (see Example 7 below) and only six mice continued to receive the double cocktail for another 21 days at which time tumor measurements were taken for all mice injected with HeLa cells. Of the remaining 12 mice injected with HeLa cells but untreated with any cocktail or anticancer agent thus far, six were maintained as controls for the rest of the duration of the experiment. The other six were treated with Xeloda® 67 days after the injection of HeLa cells (see Example 7 below).
As mentioned in Example 5 above, a total of six mice, after 20 days of double cocktail treatment, were administered with a triple cocktail (Valcyte®+Retrovir®+ddI at the dose of 1 mg/ml each in drinking water) for a further period 21 days. After 14 days of triple cocktail treatment, Xeloda® at a concentration 1 mg/ml was added to the triple cocktail. Six mice previously untreated with any drug for 67 days after the injection of HeLa cells were treated with Xeloda® at a concentration 1 mg/ml in drinking water. Tumor measurements were taken in all mice 75 days following the injection of HeLa cells.

[7] = ACV 3.0, GCV 1.5 μM or PCV 1.5 μM, 10 and 14 days (Example 2c)
[8] = GCV 1.5 μM or ACV 3.0 μM, 14 days (Example 2b)

Structure (SMILES): Nc1nc2c(ncn2COCCO)c(=O)[nH]1 [ACV, 9-[2(hydromethoxy)-methyl]guanine]
- telomere length, apoptosis and cell cycle distribution (U-2 OS cells [1]; [7]): telomere shortening, massive apoptosis and G2 arrest
- telomere length, apoptosis and cell cycle distribution (NuTu-19 cells): telomere shortening, massive apoptosis and G2 arrest
- telomere length, apoptosis and cell cycle distribution (HeLa cells [2]; [7]): telomere shortening, massive apoptosis and G2 arrest
- telomere length, apoptosis and cell cycle distribution (HeLa cells [2]; [8]): telomere shortening, massive apoptosis and G2 arrest

Structure (SMILES): Nc1nc(O)c2ncn(COC(CO)CO)c2n1 [GCV]
- telomere length, apoptosis and cell cycle distribution (U-2 OS cells [1]; [7]): telomere shortening, massive apoptosis and G2 arrest
- telomere length, apoptosis and cell cycle distribution (U-2 OS cells [1]; GCV 0.3 μg/ml, 14 days): telomere shortening, massive apoptosis programmed cell death) and G2 arrest
- telomere length, apoptosis and cell cycle distribution (NuTu-19 cells): telomere shortening, massive apoptosis and G2 arrest
- telomere length, cell cycle and apoptosis [3]: telomere shortening, G2 arrest and massive apoptosis
- telomere length, apoptosis and cell cycle distribution (HeLa cells [2]; [7]): telomere shortening, massive apoptosis and G2 arrest
- telomere length, apoptosis and cell cycle distribution (HeLa cells [2]; [8]): telomere shortening, massive apoptosis and G2 arrest
- telomere length, cell cycle and apoptosis (U-2 OS cells [4]): telomere shortening, G2 arrest and massive apoptosis

Structure (SMILES): Nc1nc2c(ncn2CCC(CO)CO)c(=O)[nH]1 [PCV]
- telomere length, apoptosis and cell cycle distribution (U-2 OS cells [1]; [7]): telomere shortening, massive apoptosis and G2 arrest
- telomere length, apoptosis and cell cycle distribution (HeLa cells [2]; [7]): telomere shortening, massive apoptosis and G2 arrest

Structure (SMILES): Cc1cn(COCCO)c(=O)[nH]c1=O [SN1, 1-[(2-Hydroxyethoxy)methyl]-5-methyluracil]
- telomere length, apoptosis and cell cycle distribution (HeLa cells [2]; SN 1 or SN 2 1.5 μM, 14 days): telomere shortening, massive apoptosis and G2 arrest
- IC50 at 2 days [5]: 750 µg/mL (≈ 3.75 mM)

Structure (SMILES): Nc1ncnc2c1ncn2COCCO [SN2, 9-[(2-Hydroxyethoxy)methyl]-adenine]
- telomere length, apoptosis and cell cycle distribution (HeLa cells [2]; SN 1 or SN 2 1.5 μM, 14 days): telomere shortening, massive apoptosis and G2 arrest
- IC50 at 2 days [5]: 750 µg/mL (≈ 3.58 mM)

Structure (SMILES): Cc1cn(COC(CO)CO)c(=O)[nH]c1=O [SN3, 1-[(1,3-Dihydroxy-2-propoxy)methyl]-5-methyluracil]
- IC50 at 2 days [5]: > 1000 µg/mL
- melting point: 156 to 157 °C

Structure (SMILES): Nc1ncnc2c1ncn2COC(CO)CO [SN4, 9-[(1,3-Dihydroxy-2-propoxy)methyl]-adenine]
- IC50 at 2 days [5]: > 1000 µg/mL

Structure (SMILES): Cc1cn(COCCOC(=O)[C@@H](N)C(C)C)c(=O)[nH]c1=O [VSN1, 2-[(5-Methyluracil-1-yl)methoxy]-ethyl L-valinate hydrochloride monohydrate]
- IC50 at 2 days [5]: > 1000 µg/mL

Structure (SMILES): CC(C)[C@H](N)C(=O)OCC(CO)OCn1cnc2c(=O)nc(N)[nH]c21 (stereo partly drawn) [Valcyte®]
- tumor growth in the other treated mice (HeLa cells [6]): slowing of tumor growth
- tumor development (HeLa cells [6]; about 14 days): All mice in control and treated groups had developed tumors
- mice in which the tumor regressed and was eliminated by monotherapy (HeLa cells [6]; by about day 30): one
